For data set [1], the system named is Her2 protein levels in BT474 breast cancer cells. Briefly: Her2 Degradation Assay. The format is cell-based. The following applies: Homo sapiens. The method, then: The potencies of the compounds of the present invention were evaluated by measuring the Her2 degradation as a marker for HSP90 inhibition.
HSP90 is a key component of a chaperone machinery that catalyzes the folding and quality control of several proteins. Its inhibition impairs the capacity to fold or stabilize its client proteins, leading to the proteosomal dependent degradation of these unfolded proteins. […] Cellular activity of HSP90 inhibitors was assessed by measuring the induced loss of Her2 protein levels in BT474 breast cancer cells (ATCC #HTB-20). Cellular Her2 levels were measured by immunocytochemistry, and quantified using an ArrayScan vTi instrument (Cellomics Thermo Scientific).
Cellular activity of HSP90 inhibitors was assessed by measuring the induced loss of Her2 protein levels in BT474 breast cancer cells (ATCC #HTB-20). Cellular Her2 levels were measured by immunocytochemistry, and quantified using an ArrayScan vTi instrument (Cellomics Thermo Scientific).
Studies were performed as follows: 5000 cells/well are seeded in 96 well plates (Perkin Elmer) in DMEM/5% FCS and incubated for 48 hours at 37° C., 5% CO2.
Medium is then replaced with fresh medium containing test compounds at the required concentration. Concentration curves are prepared in DMEM/10% FCS from compound stocks in DMSO, and final DMSO concentration is 0.1% (v/v). Duplicate wells for each concentration point are prepared, with a typical highest compound concentration of 30 μM. […] Plates are incubated for 20 minutes at room temperature, then wells are washed in PBS and cells permiabilised by incubating with PBS containing 0.3% Triton X-100 for 15 minutes at room temperature. Non-specific binding sites are blocked by incubating wells for 1 hour in PBS containing 3% (w/v) BSA. Wells are then incubated for 1 hour at room temperature in PBS containing anti Her2 mouse monoclonal (Anti-c-ErbB2/c-Neu, Mouse mAb 3B5, Calbiochem Cat N^o OP15) diluted 1:100 in 1% (w/v) BSA. […] After washing a further 3 times in PBS, cellular Her2 immunoreactivity is assessed using the ArrayScan vTi instrument, with a Zeiss 10× 0.5 N.A. objective, and applying the Cytotoxity.V3 algorithm (Cellomics/Thermo Fisher) with a XF100 filter. At least 10 fields, corresponding to at least 900 cells, are read for each well.
IC50 is the response; IC50 starts at Bottom and goes to Top with a sigmoid shape. In Vitro Cell Proliferation Assay

The test system of data set [2] is A2780 human ovarian cells. Briefly: In Vitro Cell Proliferation Assay. The class given is cell-based. The method, then:
The cells were incubated at 37° C. and 5% CO2 and after 72 hours the plates were processed using CellTiter-Glo assay (Promega) following the manufacturer's instruction.
CellTiter-Glo is a homogenous method based on the quantification of the ATP present, an indicator of metabolically active cells. ATP is quantified using a system based on luciferase and D-luciferin resulting into light generation. The luminescent signal is proportional to the number of cells present in culture.
Briefly 25 μL/well reagent solution are added to each wells and after 5 minutes shacking microplates are red by a luminometer. The luminescent signal is proportional to the number of cells present in culture.

The target of another data set is His-HSP90 N-term domain. As to the kind of experiment: Determination of KD Via Biacore. The conditions noted are these: Biacore T100. The class given is binding. The method, then: The evaluation of the binding affinity (KD) of the compounds of formula (I) to the HSP90 protein was done using Biacore T100.
His-HSP90 N-term domain was immobilized by capture of his tag by the Ab previously covalently bound to the chip (CM5) surface.
The compounds were analyzed using the following running buffer: 20 mM Tris/HCl pH 7.6, 150 mM KCl, 5 mM MgCl2, 0.05% P20 and 1% DMSO. The flow rate was 50 ul/min with and association time of 60 seconds.
The cpds were diluted in running buffer from 100× stock solution; the different conc injected were obtained from a sequential dilution in order to have the same DMSO conc. in each sample and avoid any solvent correction.
In general terms: Surface plasmon resonance follows binding to a sensor surface in real time, without labels.

Data set [3] relates to human ovarian carcinoma cell line A2780 transplanted in immunodeficient mice. Briefly: In Vivo Antitumor Efficacy. Also noted: species or system mouse. The conditions noted are these: for TGI: A2780 in athymic mice. The procedure:
Antitumor activity of HSP90 inhibitors was assessed in vivo using the human ovarian carcinoma cell line A2780 transplanted in immunodeficient mice.
Balb Nu/Nu, male mice, (athymic mice) from Harlan, Italy, were maintained in cages with paper filter covers, food and bedding sterilized and water acidified. A2780 tumors were maintained in vivo by serial transplantation and, at the time of efficacy experiments, implanted subcutaneously in athymic mice. The treatments started 8 days later when the tumors were palpable. HSP90 inhibitors were prepared immediately before use and administered intravenously in a volume of 10 ml/kg at different doses.
Tumor growth was assessed by caliper. The two diameters were recorded, and the tumor weight was calculated according to the following formula: length (mm)×width^2 (mm)/2. The effect of the antitumor treatment was determined as tumor growth inhibition (TGI %) of treated group respect to vehicle treated controls.

A short description of another data set: in vivo. The conditions noted are these: Mouse Balb Nu/Nu, single. The procedure:
Calibration Standards and Quality Controls were prepared spiking blank mouse plasma with appropriate working solutions.
Sample plasma proteins were precipitated by adding 160 μL of acetonitrile/methanol 90/10 to 20 μL of mouse plasma in a 96 well plate.
After heat sealing and mixing for 3 minutes, the plate was centrifuged for 15 minutes at 4000 rpm.
The supernatant was considered as final extract and injected onto the LC-MS-MS system.
• UPLC system: Waters Acquity BSM • Mobile phase A: 95:5-5 mM Ammonium Formate pH3.5: Acetonitrile • Mobile phase B: 5:95-5 mM Ammonium Formate pH3.5: Acetonitrile • Analytical column: BEH C18 50×2.1 1.7 μm • Elution conditions:
• Total Run Time: 2.0 min. • Flow rate: 0.500 mL/min • Approximate retention time: NMS-03308086: 0.67 min. • Column oven temp: 40° C. • Autosampler type: Waters Acquity SM • Injection volume: 3 μL • Injection mode: Partial Loop with Needle Overfill • Autosampler temperature: 5° C. • MS instrument: Waters TQD • Ionisation: ES+ • Capillary: 1.5 kV • Cone: 70 V • Source Temperature: 150° C. • Desolvation Flow and Temp.: 900 L/h-400° C. • Collision Gas Flow: 0.2 mL/min • Collision Energy: 40 • MRM transitions: NMS-03308086: m/z 579.1>m/z 97.0 • Dwell Time: 0.1 seconds • LLOQ: 5.0 ng/mL • ULOQ: 5000 ng/mL • Software used: Mass Lynx 4.1 SCN627

The mark [4] stands for this setting: BT-474, 8 h, read-out: Her2 Degradation IC50 (μM).
Where [5] appears, read: Homo sapiens, A2780, 72 h, read-out: A2780 Proliferation IC50 (μM).
The mark [6] stands for this setting: BT-474, BT474 breast cancer cells, 8 hours, read-out: Her2 Degradation IC50.

Read-outs that look alike come from different tables or passages of the source.

For the compound `CN(C)c1ccc(Oc2cc(O)cc(O)c2-c2cc(C(=O)NC3CCN(C4CCC5(CC4)OCCCO5)CC3)no2)cc1` [5-{2-[4-(Dimethylamino)phenoxy]-4,6-dihydroxyphenyl}-N-[1-(1,5-dioxaspiro[5.5]undec-9-yl)piperidin-4-yl]isoxazole-3-carboxamide], the IC50 is 0.038 µM in data set [1] (setting [4]) and 0.021 µM in data set [2] (setting [5]). Moreover, on His-HSP90 N-term domain, the affinity, expressed as Kd, was 0.079 nM. In data set [3] (intravenously at 30 mg/Kg daily), this compound displayed a TGI of 92%.
Consider `CN1CCC(NC(=O)c2cc(-c3c(O)cc(O)cc3Oc3ccc(N(C)C)cc3)no2)CC1` [3-{2-[4-(Dimethylamino)phenoxy]-4,6-dihydroxyphenyl}-N-(1-methylpiperidin-4-yl)isoxazole-5-carboxamide], for which the IC50 in data set [1] (setting [4]) amounted to 0.008 µM; in data set [2] (setting [5]) it was 0.03 µM. This compound also yielded a dissociation constant Kd on His-HSP90 N-term domain of 0.066 nM. The TGI in data set [3] (intravenously at 40 mkg/kg every three days) was 88%. Also, the clearance in “in vivo” (10 mg/kg IV bolus, read-out: CL (mL/h/kg) Plasma clearance (converted)) was 3430 mL/h/kg. In the data set “in vivo” (10 mg/kg IV bolus, read-out: T1/2 (h) Terminal half-life (converted)), the half-life was 5.12 h. In the data set “in vivo” (10 mg/kg IV bolus, read-out: Vdss (mL/kg) Volume of distribution at steady state), the Vd stood at 12500 mL/kg. Besides, in the data set “in vivo” (10 mg/kg oral vs 10 mg/kg IV, read-out: F % Oral bioavailability), the bioavailability stood at 25%.
For `CN1CCC(NC(=O)c2cc(-c3c(O)cc(O)cc3Oc3ccc(N(C)C)cc3)on2)CC1` [5-{2-[4-(Dimethylamino)phenoxy]-4,6-dihydroxyphenyl}-N-(1-methylpiperidin-4-yl)isoxazole-3-carboxamide], in data set [1] (setting [6]), the IC50 was 0.039 µM. Besides, the inhibition of tumour growth (TGI) in data set [3] (intravenously at 40 mg/Kg daily) is given as 77%.
`CN1CCC(NC(=O)c2cc(-c3c(O)cc(O)cc3Oc3ccc([N+](=O)[O-])cc3)on2)CC1` [5-[2,4-dihydroxy-6-(4-nitrophenoxy)phenyl]-N-(1-methylpiperidin-4-yl)isoxazole-3-carboxamide]: the IC50 in data set [1] (setting [6]) amounted to 0.11 µM; in data set [2] (A2780 human ovarian cells, 72 hours, CellTiter-Glo, read-out: A2780 Proliferation IC50) it was 0.06 µM. Moreover, the TGI in data set [3] (30 mg/kg for 10 consecutive days, intravenously) came out at 53%; in data set [3] (60 mg/kg for 10 consecutive days, intravenously) it was 74%. The signs of toxicities result in data set [3] (30 and 60 mg/kg for 10 consecutive days, athymic mice) is given as “without signs of toxicities”.

For orientation: Kd means the free concentration of one partner at which half of the binding sites on the other are occupied at equilibrium, for simple one-to-one binding. Lower therefore signals a tighter complex. As usually defined, the TGI is the reduction of tumour growth relative to the control group. A lower TGI goes with little slowing of growth. One may read the bioavailability as the share of a dose that reaches the circulation, judged against a reference dose that is usually intravenous.

Source of the values: US8993556B2, “Resorcinol derivatives as HSP90 inhibitors” (priority 2009, dated 2015).
